We go through 29 compounds from patent US9079866B2, “Flap modulators” (JANSSEN PHARMACEUTICA NV, priority 2013, dated 2015).

The target of one assay is human FLAP (Homo sapiens (Human), UniProt P20292). Put plainly: FLAP binding assay (HTRF format). As to conditions: human FLAP wild type, HTRF format; average of two plates, duplicates. In short, it runs like this:
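Samples were run in duplicate on each of two assay plates, the results were averaged, and the signal was expressed as an HTRF ratio.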
(TR-FRET usually uses a lanthanide donor and a delayed reading to cut background.)

In assay [1] the test system is leukotriene pathway in human whole blood (LTB4 levels). Put plainly: Human whole blood assay (A23187-stimulated LTB4). As to conditions: Homo sapiens, human whole blood diluted 1:1 in RPMI, A23187-stimulated LTB4; read-out: LTB4 IC50 1:1. It is filed as cell-based. In a few lines:
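Compounds are pre-incubated 15 min at 37° Celsius in RPMI-diluted (1:1) heparinised whole blood before a 30 min A23187 stimulus (7 μg/mL). Plasma LTB4 is read by immunoassay kit, with IC50 calculated from a 4-parameter equation.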

Chain of human FLAP (P20292 whole entry): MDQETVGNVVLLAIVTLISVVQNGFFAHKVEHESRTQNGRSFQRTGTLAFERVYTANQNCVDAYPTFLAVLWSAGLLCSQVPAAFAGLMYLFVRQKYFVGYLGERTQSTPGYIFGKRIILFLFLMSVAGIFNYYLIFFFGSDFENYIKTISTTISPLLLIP

Consider `Nc1cnc(-c2ccc(-c3ccccc3S(=O)(=O)N3CCc4[nH]ncc4C3)cc2F)cn1` [Example 128, 5-[3-Fluoro-2′-(1,4,6,7-tetrahydro-5H-pyrazolo[4,3-c]pyridin-5-ylsulfonyl)biphenyl-4-yl]pyrazin-2-amine], for which the Ki (as a rule, a dissociation constant, usually derived from enzyme kinetics or from competition with a known ligand) on human FLAP was 1 nM. The IC50 (as a rule, the point on the concentration scale where inhibition reaches its midpoint) in assay [1] worked out at 38 nM.

`Nc1cnc(-c2ccc(-c3ccccc3S(=O)(=O)N3CCC(n4cn[nH]c4=O)CC3)cc2F)cn1` [Example 129, 4-(1-{[4′-(5-Aminopyrazin-2-yl)-3′-fluorobiphenyl-2-yl]sulfonyl}piperidin-4-yl)-2,4-dihydro-3H-1,2,4-triazol-3-one]: the Ki at human FLAP was 4 nM. The IC50 in assay [1] stood at 534 nM.

Take `Nc1cnc(-c2ccc(-c3ccccc3S(=O)(=O)N3C[C@H]4C[C@@H]3CN4)cc2F)cn1` [Example 130, 5-(2′-((1R,4R)-2,5-Diazabicyclo[2.2.1]heptan-2-ylsulfonyl)-3-fluoro-[1,1′-biphenyl]-4-yl)pyrazin-2-amine]: on human FLAP, the Ki came to 129 nM. Besides, the IC50 in assay [1] was 633 nM.

`Nc1cnc(-c2ccc(-c3ccccc3S(=O)(=O)N3C[C@@H]4C[C@H]3CN4)cc2F)cn1` [Example 131, 5-(2′-((1S,4S)-2,5-Diazabicyclo[2.2.1]heptan-2-ylsulfonyl)-3-fluoro-[1,1′-biphenyl]-4-yl)pyrazin-2-amine]: the Ki at human FLAP was 144 nM. Also, the IC50 in assay [1] stood at 695 nM.

The compound `Nc1cnc(-c2ccc(-c3ccccc3S(=O)(=O)NCCCCCO)cc2F)cn1` [Example 132, 4′-(5-Aminopyrazin-2-yl)-3′-fluoro-N-(5-hydroxypentyl)biphenyl-2-sulfonamide] came in with a Ki at human FLAP of 2 nM. Also, the IC50 in assay [1] came to 11 nM.

As for `Nc1cnc(-c2ccc(-c3ccccc3S(=O)(=O)NCCCCCCO)cc2F)cn1` [Example 133, 4′-(5-Aminopyrazin-2-yl)-3′-fluoro-N-(6-hydroxyhexyl)biphenyl-2-sulfonamide], affinity at human FLAP was put at a Ki of 1 nM. Besides, in assay [1], the IC50 was 32 nM.

As to `Nc1cnc(-c2ccc(-c3ccccc3S(=O)(=O)N[C@H]3CC[C@@H](N)CC3)cc2F)cn1` [Example 134, cis-N-(4-Aminocyclohexyl)-4′-(5-aminopyrazin-2-yl)-3′-fluorobiphenyl-2-sulfonamide], the affinity on human FLAP, expressed as Ki, was 1 nM. Further, the IC50 in assay [1] is greater than 1000 nM.

As for `Nc1cnc(-c2ccc(-c3ccccc3S(=O)(=O)N(CCO)C3CCCCC3)cc2F)cn1` [Example 136, 4′-(5-Aminopyrazin-2-yl)-N-cyclohexyl-3′-fluoro-N-(2-hydroxyethyl)biphenyl-2-sulfonamide], the affinity at human FLAP corresponds to a Ki of 1 nM. In assay [1], the IC50 worked out at 15 nM.

The compound `Nc1cnc(-c2ccc(-c3ccccc3S(=O)(=O)N3CCC[C@H](N)C3)cc2F)cn1` [Example 137, (S)-5-{2′-[(3-Aminopiperidin-1-yl)sulfonyl]-3-fluorobiphenyl-4-yl}pyrazin-2-amine] yielded a Ki on human FLAP of 3 nM. Further, the IC50 in assay [1] was found to be 44 nM.

For the compound `Nc1cnc(-c2ccc(-c3ccccc3S(=O)(=O)N(CCO)CCO)cc2F)cn1` [Example 138, 4′-(5-Aminopyrazin-2-yl)-3′-fluoro-N,N-bis(2-hydroxyethyl)biphenyl-2-sulfonamide], the Ki at human FLAP is 11 nM. For the same compound, in assay [1], the IC50 turned out to be 174 nM.

The compound `Nc1cnc(-c2ccc(-c3ccccc3S(=O)(=O)N(C3CCOCC3)C3CC3)cc2F)cn1` [Example 140, 4′-(5-Aminopyrazin-2-yl)-N-cyclopropyl-3′-fluoro-N-(tetrahydro-2H-pyran-4-yl)biphenyl-2-sulfonamide] yielded a Ki at human FLAP of 1 nM. Moreover, the concentration for half-maximal inhibition (IC50) in assay [1] came out at 11 nM.

On human FLAP, `CC(C)N(CCO)S(=O)(=O)c1ccccc1-c1ccc(-c2cnc(N)cn2)c(F)c1` [Example 141, 4′-(5-Aminopyrazin-2-yl)-3′-fluoro-N-(2-hydroxyethyl)-N-(1-methylethyl)biphenyl-2-sulfonamide] returned a Ki of 1 nM. Moreover, the IC50 in assay [1] turned out to be 3 nM.

Consider `Nc1cnc(-c2ccc(-c3ccccc3S(=O)(=O)N3C[C@@H]4C(N)[C@@H]4C3)cc2F)cn1` (stereo partly drawn) [Example 143, endo-3-((4′-(5-Aminopyrazin-2-yl)-3′-fluoro-[1,1′-biphenyl]-2-yl)sulfonyl)-3-azabicyclo[3.1.0]hexan-6-amine], for which, on human FLAP, the Ki worked out at 8 nM. In addition, the IC50 in assay [1] worked out at 49 nM.

`C[C@H]1CNCCN1S(=O)(=O)c1ccccc1-c1ccc(-c2cnc(N)cn2)c(F)c1` [Example 144, (S)-5-(3-Fluoro-2′-((2-methylpiperazin-1-yl)sulfonyl)-[1,1′-biphenyl]-4-yl)pyrazin-2-amine] yielded a Ki on human FLAP of 15 nM. Further, in assay [1], the IC50 was 97 nM.

At human FLAP, `C[C@@H]1CNCCN1S(=O)(=O)c1ccccc1-c1ccc(-c2cnc(N)cn2)c(F)c1` [Example 145, (R)-5-(3-Fluoro-2′-((2-methylpiperazin-1-yl)sulfonyl)-[1,1′-biphenyl]-4-yl)pyrazin-2-amine] returned a Ki of 17 nM. The IC50 in assay [1] came out at 21 nM.

At human FLAP, `Nc1cnc(-c2ccc(-c3ccccc3S(=O)(=O)N3CCNC[C@@H]3CO)cc2F)cn1` [Example 146, (R)-(1-((4′-(5-Aminopyrazin-2-yl)-3′-fluoro-[1,1′-biphenyl]-2-yl)sulfonyl)piperazin-2-yl)methanol] gave a Ki of 19 nM. For the same compound, the IC50 in assay [1] stood at 168 nM.

For the compound `CC(CO)(CO)NS(=O)(=O)c1ccccc1-c1ccc(-c2cnc(N)cn2)c(F)c1` [Example 147, 4′-(5-Aminopyrazin-2-yl)-3′-fluoro-N-[2-hydroxy-1-(hydroxymethyl)-1-methylethyl]biphenyl-2-sulfonamide], the Ki on human FLAP was 1 nM. The IC50 in assay [1] was 102 nM.

Compound `CC(C)[C@@H](CO)NS(=O)(=O)c1ccccc1-c1ccc(-c2cnc(N)cn2)c(F)c1` [Example 148, (S)-4′-(5-Aminopyrazin-2-yl)-3′-fluoro-N-(1-hydroxy-3-methylbutan-2-yl)-[1,1′-biphenyl]-2-sulfonamide] displayed a Ki on human FLAP of 2 nM. Further, the IC50 in assay [1] worked out at 8 nM.

As for `CC(C)(C)[C@@H](CO)NS(=O)(=O)c1ccccc1-c1ccc(-c2cnc(N)cn2)c(F)c1` [Example 149, (S)-4′-(5-Aminopyrazin-2-yl)-3′-fluoro-N-(1-hydroxy-3,3-dimethylbutan-2-yl)-[1,1′-biphenyl]-2-sulfonamide], affinity at human FLAP was put at a Ki of 5 nM. For the same compound, in assay [1], the IC50 was found to be 82 nM.

As for `CC(C)(C)[C@H](CO)NS(=O)(=O)c1ccccc1-c1ccc(-c2cnc(N)cn2)c(F)c1` [Example 150, (R)-4′-(5-Aminopyrazin-2-yl)-3′-fluoro-N-(1-hydroxy-3,3-dimethylbutan-2-yl)-[1,1′-biphenyl]-2-sulfonamide], at human FLAP, the Ki turned out to be 1 nM. Besides, the IC50 in assay [1] turned out to be 11 nM.

Take `CC(C)(C)OC(=O)NCCNS(=O)(=O)c1ccccc1-c1ccc(-c2cnc(N)cn2)c(F)c1` [Example 151, tert-Butyl [2-({[4′-(5-aminopyrazin-2-yl)-3′-fluorobiphenyl-2-yl]sulfonyl}amino)ethyl]carbamate]: the Ki at human FLAP was 1 nM. Moreover, in assay [1], the IC50 is 114 nM.

`NCCNS(=O)(=O)c1ccccc1-c1ccc(-c2cnc(N)cn2)c(F)c1` [Example 152, N-(2-Aminoethyl)-4′-(5-aminopyrazin-2-yl)-3′-fluorobiphenyl-2-sulfonamide]: the affinity at human FLAP corresponds to a Ki of 81 nM. Moreover, the IC50 in assay [1] came out at 537 nM.

`CC[C@@H](CO)NS(=O)(=O)c1ccccc1-c1ccc(-c2cnc(N)cn2)c(F)c1` [Example 153, (S)-4′-(5-Aminopyrazin-2-yl)-3′-fluoro-N-(1-hydroxybutan-2-yl)-[1,1′-biphenyl]-2-sulfonamide] gave a Ki at human FLAP of 3 nM. In addition, in assay [1], the IC50 was 7 nM.

`Nc1cnc(-c2ccc(-c3ccccc3S(=O)(=O)N[C@H]3CCNC3)cc2F)cn1` [Example 154, (S)-4′-(5-Aminopyrazin-2-yl)-3′-fluoro-N-(pyrrolidin-3-yl)-[1,1′-biphenyl]-2-sulfonamide] displayed a Ki at human FLAP of 29 nM. Moreover, the IC50 in assay [1] worked out at 1040 nM.

For `CC(=O)NCCNS(=O)(=O)c1ccccc1-c1ccc(-c2cnc(N)cn2)c(F)c1` [Example 155, N-[2-({[4′-(5-Aminopyrazin-2-yl)-3′-fluorobiphenyl-2-yl]sulfonyl}amino)ethyl]acetamide], on human FLAP, affinity was put at a Ki of 12 nM. In assay [1], the IC50 came out at 103 nM.

The compound `C[C@H](NS(=O)(=O)c1ccccc1-c1ccc(-c2cnc(N)cn2)c(F)c1)C(=O)O` [Example 156, (S)-2-(4′-(5-Aminopyrazin-2-yl)-3′-fluoro-[1,1′-biphenyl]-2-ylsulfonamido)propanoic acid] had a Ki at human FLAP of 351 nM. Moreover, the IC50 in assay [1] was greater than 10000 nM.

The compound `NC(=O)NCCNS(=O)(=O)c1ccccc1-c1ccc(-c2cnc(N)cn2)c(F)c1` [Example 157, 4′-(5-Aminopyrazin-2-yl)N—N-[2-(carbamoylamino)ethyl]-3′-fluorobiphenyl-2-sulfonamide] registered a Ki at human FLAP of 10 nM. Moreover, the IC50 in assay [1] is 1840 nM.

On human FLAP, `Nc1cnc(-c2ccc(-c3ccccc3S(=O)(=O)N[C@H]3c4ccccc4C[C@@H]3O)cc2F)cn1` [Example 158, 4′-(5-Aminopyrazin-2-yl)-3′-fluoro-N-((1S,2S)-2-hydroxy-2,3-dihydro-1H-inden-1-yl)-[1,1′-biphenyl]-2-sulfonamide] showed a Ki of 1 nM. The IC50 in assay [1] was found to be 1 nM.

In the case of `Nc1cnc(-c2ccc(-c3ccccc3S(=O)(=O)N[C@@H]3c4ccccc4C[C@H]3O)cc2F)cn1` [Example 159, 4′-(5-Aminopyrazin-2-yl)-3′-fluoro-N-((1R,2R)-2-hydroxy-2,3-dihydro-1H-inden-1-yl)-[1′,1′-biphenyl]-2-sulfonamide], the affinity on human FLAP corresponds to a Ki of 1 nM. The IC50 in assay [1] stood at 1 nM.
